Like-named read-outs stand apart in the source and are kept apart here.
What was measured:
CHEK2 = CHEK2 (Homo sapiens, UniProt O96017); assay: Kinase Profiler, residual kinase activity; assay type: biochemical; details: read-out: percentage of the remaining kinase activity
FGFR1 = FGFR1 (Homo sapiens, UniProt P11362); assay: Kinase Profiler, residual kinase activity; assay type: biochemical; details: read-out: percentage of the remaining kinase activity
ABL1 = ABL1 (Homo sapiens, UniProt P00519); assay: Kinase Profiler, residual kinase activity; assay type: biochemical; details: read-out: percentage of the remaining kinase activity
RPS6KB1 = target: T1, RPS6KB1 (Homo sapiens, UniProt P23443); assay: Kinase Profiler, residual kinase activity; assay type: biochemical; details: read-out: percentage of the remaining kinase activity
T1 construct: purchased Research Biology Corp. (http://www.reactionbiology.com)

GSG2 = target: T2, GSG2 (Homo sapiens, UniProt Q8TF76); assay: Kinase Profiler, residual kinase activity; assay type: biochemical; details: read-out: percentage of the remaining kinase activity
T2 sequence (Q8TF76 1-798): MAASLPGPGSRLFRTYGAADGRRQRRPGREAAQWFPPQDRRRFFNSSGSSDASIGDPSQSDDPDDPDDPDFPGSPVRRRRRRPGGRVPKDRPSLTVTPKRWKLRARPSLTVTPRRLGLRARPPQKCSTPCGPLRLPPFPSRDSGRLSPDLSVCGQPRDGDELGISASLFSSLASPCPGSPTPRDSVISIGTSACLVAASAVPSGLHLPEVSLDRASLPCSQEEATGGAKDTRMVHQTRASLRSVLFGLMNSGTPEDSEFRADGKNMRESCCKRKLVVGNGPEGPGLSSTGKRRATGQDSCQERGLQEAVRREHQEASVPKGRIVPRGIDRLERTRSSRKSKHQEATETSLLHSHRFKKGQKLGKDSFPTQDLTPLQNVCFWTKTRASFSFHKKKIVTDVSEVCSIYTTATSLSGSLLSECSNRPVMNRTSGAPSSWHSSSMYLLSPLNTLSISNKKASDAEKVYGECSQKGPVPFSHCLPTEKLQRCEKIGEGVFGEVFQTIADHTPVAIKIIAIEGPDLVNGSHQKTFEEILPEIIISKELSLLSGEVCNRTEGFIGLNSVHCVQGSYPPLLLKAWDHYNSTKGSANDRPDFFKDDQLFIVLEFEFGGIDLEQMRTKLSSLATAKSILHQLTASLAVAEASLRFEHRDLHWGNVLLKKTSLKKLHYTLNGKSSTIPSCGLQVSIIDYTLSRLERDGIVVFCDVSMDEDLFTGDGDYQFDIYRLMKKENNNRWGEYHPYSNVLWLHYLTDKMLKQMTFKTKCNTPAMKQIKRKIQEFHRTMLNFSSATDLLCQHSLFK
How it was run: (§1)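 Residual kinase activity came from a commercial kinase profiling service, testing inhibitors across a panel of 40 protein kinases.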

SRPK1 = target: T3, SRPK1 (Homo sapiens, UniProt Q96SB4); assay: Kinase Profiler, residual kinase activity; assay type: biochemical; details: read-out: percentage of the remaining kinase activity
T3 construct: purchased Research Biology Corp. (http://www.reactionbiology.com)
How it was run: as §1

[1] = tested on: 40 types of protein kinases; assay: Selectivity over the panel of 40 protein kinases; assay type: biochemical; details: 500 nM; inhibited = residual kinase activity less than or equal to 50%
Description: Kinase Profiler services provided by […]. (http://www.reactionbiology.com) were used to analyze the data of the 9 type-S protein kinase inhibitors against the 40 types of protein kinases.

[2] = tested on: gastric cancer cell line MKN-45; assay: MTT cell survival test on gastric cancer cells; assay type: cell-based; details: Homo sapiens; MKN-45, MTT, 24 hours, serum-free media; read-out: IC50 value for inhibiting gastric cancer cell line MKN-45
Procedure: Gastric cancer cell line MKN-45 was incubated on a 96-well plate (about 1×10^4 cells/well). After the cells adhered, the 96-well plate was replaced with serum-free culture media, and different concentrations (from 40 to 0.039 μM) of drugs were added. After incubating at 37° C. for 24 hours, PBS was used for washing three times, and MTT culture media was added to react with cells. Violet crystals appeared after two hours. Then, DMSO (50 μl) was added to terminate the reaction. A light-absorbing micro-volume spectrophotometer (ELISA reader) was used, and an absorption value of 570 nm was obtained. A blank value was deducted from each of the obtained absorbance values, and then the difference was divided by the value of the control group to calculate a percentage, i.e., a cell survival rate. The experiment was repeated three times to obtain an average value and a standard deviation.

ABL1, sequence (P00519 whole entry): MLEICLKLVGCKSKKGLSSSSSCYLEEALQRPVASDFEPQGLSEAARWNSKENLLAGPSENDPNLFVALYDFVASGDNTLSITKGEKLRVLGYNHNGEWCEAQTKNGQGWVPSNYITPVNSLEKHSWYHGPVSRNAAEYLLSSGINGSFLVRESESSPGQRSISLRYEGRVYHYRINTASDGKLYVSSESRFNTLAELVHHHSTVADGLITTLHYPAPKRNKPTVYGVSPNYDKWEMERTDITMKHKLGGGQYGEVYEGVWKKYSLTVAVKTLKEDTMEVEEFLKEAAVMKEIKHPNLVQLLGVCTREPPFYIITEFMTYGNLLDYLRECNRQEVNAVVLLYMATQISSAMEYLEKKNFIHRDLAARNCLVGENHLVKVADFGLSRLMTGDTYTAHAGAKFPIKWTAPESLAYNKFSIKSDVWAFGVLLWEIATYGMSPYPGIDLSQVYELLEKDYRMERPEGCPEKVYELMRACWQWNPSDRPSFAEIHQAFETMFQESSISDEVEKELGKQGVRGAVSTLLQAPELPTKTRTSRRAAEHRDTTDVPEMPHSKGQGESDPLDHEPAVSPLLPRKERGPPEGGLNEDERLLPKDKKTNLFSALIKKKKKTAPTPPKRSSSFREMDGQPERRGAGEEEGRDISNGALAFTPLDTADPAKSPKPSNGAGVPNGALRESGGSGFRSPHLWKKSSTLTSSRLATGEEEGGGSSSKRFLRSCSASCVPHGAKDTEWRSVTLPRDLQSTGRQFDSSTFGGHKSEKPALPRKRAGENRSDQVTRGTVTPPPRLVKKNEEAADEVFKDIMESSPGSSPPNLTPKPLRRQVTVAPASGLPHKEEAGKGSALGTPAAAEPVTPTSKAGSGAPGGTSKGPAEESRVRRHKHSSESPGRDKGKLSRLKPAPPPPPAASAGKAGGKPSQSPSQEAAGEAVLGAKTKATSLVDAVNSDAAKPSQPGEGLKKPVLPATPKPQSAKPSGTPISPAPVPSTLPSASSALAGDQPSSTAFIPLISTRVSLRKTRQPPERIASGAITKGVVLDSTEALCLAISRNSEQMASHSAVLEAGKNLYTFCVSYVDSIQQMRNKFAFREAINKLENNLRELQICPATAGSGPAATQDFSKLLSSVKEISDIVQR
FGFR1, sequence (P11362 22-822): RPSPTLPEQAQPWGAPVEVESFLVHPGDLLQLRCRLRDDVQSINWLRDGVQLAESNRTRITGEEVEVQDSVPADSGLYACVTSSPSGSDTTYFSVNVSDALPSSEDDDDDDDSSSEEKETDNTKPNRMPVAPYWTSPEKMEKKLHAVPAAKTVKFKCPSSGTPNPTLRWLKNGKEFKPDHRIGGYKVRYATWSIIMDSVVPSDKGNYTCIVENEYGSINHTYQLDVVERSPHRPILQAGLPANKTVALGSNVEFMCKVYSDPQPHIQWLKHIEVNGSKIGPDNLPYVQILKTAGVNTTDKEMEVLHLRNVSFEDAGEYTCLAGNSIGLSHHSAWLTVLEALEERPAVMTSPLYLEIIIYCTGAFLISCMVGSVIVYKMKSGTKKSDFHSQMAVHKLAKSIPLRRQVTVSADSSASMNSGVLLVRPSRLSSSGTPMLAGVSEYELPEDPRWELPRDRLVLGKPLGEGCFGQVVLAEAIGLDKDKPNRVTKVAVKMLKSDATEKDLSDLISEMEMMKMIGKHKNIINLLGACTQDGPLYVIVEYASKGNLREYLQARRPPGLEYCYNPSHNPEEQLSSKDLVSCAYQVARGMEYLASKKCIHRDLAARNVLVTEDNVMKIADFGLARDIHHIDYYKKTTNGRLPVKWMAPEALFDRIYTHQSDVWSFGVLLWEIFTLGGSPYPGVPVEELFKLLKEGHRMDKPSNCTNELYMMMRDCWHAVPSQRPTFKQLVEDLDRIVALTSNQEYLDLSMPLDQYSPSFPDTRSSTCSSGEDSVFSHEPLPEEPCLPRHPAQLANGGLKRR
T3 sequence (Q96SB4 whole entry): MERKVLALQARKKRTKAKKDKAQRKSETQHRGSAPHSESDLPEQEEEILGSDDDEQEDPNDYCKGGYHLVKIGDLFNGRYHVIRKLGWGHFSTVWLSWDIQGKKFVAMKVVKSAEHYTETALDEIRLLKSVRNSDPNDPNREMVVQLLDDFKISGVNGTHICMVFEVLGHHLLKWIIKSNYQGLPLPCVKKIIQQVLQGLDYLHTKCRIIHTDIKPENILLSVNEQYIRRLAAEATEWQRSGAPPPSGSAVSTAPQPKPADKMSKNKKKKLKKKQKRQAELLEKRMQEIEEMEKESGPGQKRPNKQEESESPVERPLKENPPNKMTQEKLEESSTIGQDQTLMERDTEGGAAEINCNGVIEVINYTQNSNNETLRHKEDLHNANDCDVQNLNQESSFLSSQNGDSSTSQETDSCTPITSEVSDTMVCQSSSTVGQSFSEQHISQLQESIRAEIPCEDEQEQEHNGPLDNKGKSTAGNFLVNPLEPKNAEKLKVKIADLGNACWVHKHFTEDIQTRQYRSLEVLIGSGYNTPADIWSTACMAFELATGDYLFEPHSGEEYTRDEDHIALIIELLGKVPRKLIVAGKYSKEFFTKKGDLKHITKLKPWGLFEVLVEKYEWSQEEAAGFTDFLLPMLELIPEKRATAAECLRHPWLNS
CHEK2, sequence (O96017 whole entry): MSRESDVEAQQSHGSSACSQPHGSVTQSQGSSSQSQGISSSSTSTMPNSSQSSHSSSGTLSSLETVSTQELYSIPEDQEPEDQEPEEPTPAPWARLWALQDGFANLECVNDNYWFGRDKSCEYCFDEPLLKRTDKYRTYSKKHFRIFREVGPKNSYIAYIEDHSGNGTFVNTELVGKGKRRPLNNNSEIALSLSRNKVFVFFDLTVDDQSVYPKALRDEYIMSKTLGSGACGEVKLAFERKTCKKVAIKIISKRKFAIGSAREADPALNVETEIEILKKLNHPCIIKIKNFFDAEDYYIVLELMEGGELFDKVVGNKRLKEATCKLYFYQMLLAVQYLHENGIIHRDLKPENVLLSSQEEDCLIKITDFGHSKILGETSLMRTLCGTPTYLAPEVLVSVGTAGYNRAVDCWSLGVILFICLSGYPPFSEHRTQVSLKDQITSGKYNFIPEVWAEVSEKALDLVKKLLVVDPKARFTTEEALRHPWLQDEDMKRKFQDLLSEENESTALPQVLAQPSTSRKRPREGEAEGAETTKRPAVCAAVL
T1 sequence (P23443 whole entry): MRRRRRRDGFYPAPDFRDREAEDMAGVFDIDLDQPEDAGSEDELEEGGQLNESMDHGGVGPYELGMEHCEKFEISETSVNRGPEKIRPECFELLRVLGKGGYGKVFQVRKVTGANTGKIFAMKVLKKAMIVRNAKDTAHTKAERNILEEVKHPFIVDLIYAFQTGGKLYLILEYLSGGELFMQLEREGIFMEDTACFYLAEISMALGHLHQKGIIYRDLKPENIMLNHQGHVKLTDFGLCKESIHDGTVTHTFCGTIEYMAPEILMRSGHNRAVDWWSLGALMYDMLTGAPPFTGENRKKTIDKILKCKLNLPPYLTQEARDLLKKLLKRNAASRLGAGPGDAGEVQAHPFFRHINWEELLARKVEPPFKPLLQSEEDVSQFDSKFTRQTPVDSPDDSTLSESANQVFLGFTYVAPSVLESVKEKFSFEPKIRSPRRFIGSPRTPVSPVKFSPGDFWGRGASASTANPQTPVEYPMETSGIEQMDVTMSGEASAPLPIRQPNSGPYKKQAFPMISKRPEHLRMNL

| Compound | remaining activity at 0.5 µM (CHEK2; CHEK2, inhibitor at 500 nM) [%] | remaining activity at 0.5 µM (FGFR1; FGFR1, inhibitor at 500 nM) [%] | remaining activity at 0.5 µM (ABL1; ABL1, inhibitor at 500 nM) [%] | remaining activity at 0.5 µM (RPS6KB1; RPS6KB1, inhibitor at 500 nM) [%] | remaining activity at 0.5 µM (GSG2; GSG2, inhibitor at 500 nM) [%] | remaining activity at 0.5 µM (SRPK1; SRPK1, inhibitor at 500 nM) [%] | percentage of the 40 types of protein kinases inhibited [1] [%] | IC50 [2] [nM] | number of types of protein kinases inhibited out of 40 tested [1] | remaining activity at 0.5 µM (CHEK2) [%] | remaining activity at 0.5 µM (FGFR1) [%] | remaining activity at 0.5 µM (ABL1) [%] | remaining activity at 0.5 µM (RPS6KB1) [%] | remaining activity at 0.5 µM (GSG2) [%] | remaining activity at 0.5 µM (SRPK1) [%] |
| --- | --- | --- | --- | --- | --- | --- | --- | --- | --- | --- | --- | --- | --- | --- | --- |
| COC1C(N(C)C(=O)C(N)Cc2cn(C(=O)OC(C)(C)C)c3ccccc23)CC2OC1(C)n1c3ccccc3c3c4c(c5c6ccccc6n2c5c31)C(=O)NC4 (stereo not drawn) [Compound 2] | 95.8 | 101 | 109 | 72.4 | 110 | 95.7 | 2.5 | – | – | – | – | – | – | – | – |
| CN[C@@H]1C[C@H]2O[C@@](C)([C@@H]1OC)n1c3ccccc3c3c4c(c5c6ccccc6n2c5c31)C(=O)NC4 [STU, staurosporine, reference compound] | – | – | – | – | 9 | 17.7 | – | – | – | – | – | – | – | – | – |
| COC1C(N(C)C(=O)C(N)Cc2ccc(OC(C)(C)C)cc2)CC2OC1(C)n1c3ccccc3c3c4c(c5c6ccccc6n2c5c31)C(=O)NC4 (stereo not drawn) [Compound 4] | 80.4 | 53.3 | 107 | 15.2 | 102 | 85 | 27.5 | 1600 | 11 | – | – | – | – | – | – |
| COC1C(N(C)C(=O)C(N)CCC(=O)OC(C)(C)C)CC2OC1(C)n1c3ccccc3c3c4c(c5c6ccccc6n2c5c31)C(=O)NC4 (stereo not drawn) [Compound 6] | 82.7 | 29.5 | 97.6 | 15 | 88 | 65.3 | – | – | – | – | – | – | – | – | – |
| COC1C(N(C)CCOc2cccc([N+](=O)[O-])c2)CC2OC1(C)n1c3ccccc3c3c4c(c5c6ccccc6n2c5c31)C(=O)NC4 (stereo not drawn) [Compound 8] | – | – | – | – | – | – | – | – | – | 46.7 | 30.1 | 92.5 | 11.8 | 89.8 | 78.3 |
| COC1C(N(C)C(=O)C(N)Cc2ccc(O)cc2)CC2OC1(C)n1c3ccccc3c3c4c(c5c6ccccc6n2c5c31)C(=O)NC4 (stereo not drawn) [Compound 5] | 73.2 | 16.6 | 104 | 11.8 | 89.5 | 61.1 | – | – | – | – | – | – | – | – | – |
| COC1C(N(C)C(=O)C(N)CCC(=O)O)CC2OC1(C)n1c3ccccc3c3c4c(c5c6ccccc6n2c5c31)C(=O)NC4 (stereo not drawn) [Compound 7] | 47.2 | 3.2 | 68 | 9.2 | 69.9 | 38.9 | – | – | – | – | – | – | – | – | – |
| COC1C(N(C)Cc2ccc(-c3ccccc3)cc2)CC2OC1(C)n1c3ccccc3c3c4c(c5c6ccccc6n2c5c31)C(=O)NC4 (stereo not drawn) [Compound 9] | 37.7 | 25.7 | 84.9 | 11.1 | 87.8 | 78.5 | – | – | – | – | – | – | – | – | – |
| COC1C(N(C)C(=O)C(N)Cc2c[nH]cn2)CC2OC1(C)n1c3ccccc3c3c4c(c5c6ccccc6n2c5c31)C(=O)NC4 (stereo not drawn) [Compound 1] | 30.3 | 5.1 | 77.6 | 7.9 | 69.9 | 24.4 | – | – | – | – | – | – | – | – | – |

From patent publication US9738660B2, “Selective inhibitors for protein kinases and pharmaceutical composition and use thereof” (National Chiao Tung University, priority 2014, dated 2017)
